Measured values taken from US9434687B2, “Detection of synthetic cannabinoids” (priority 2011, dated 2016).
Counter-ions that a name gives are not always drawn. Like-named read-outs stand apart in the source and are kept apart here.

Assays:
Type in all cases: binding, sheep
[1] = test system: IgG fraction of antiserum raised to Immunogen IV; settings: Antibody to Immunogen IV, cross-reactants at 100 ng/ml, 1000 ng/ml, standard JWH-018
Experimental: (§1) An aqueous solution of each immunogen was formulated with Freund's Complete Adjuvant (FCA) to form an emulsion consisting of 2 mg/ml*immunogen in 50% (v/v) FCA. Three sheep were immunised with this emulsion (1° immunisation), 0.25 ml being intramuscularly injected at each of four sites in the flank of each animal. Subsequent immunizations (boosts) contained 1 mg/ml*immunogen. All boosts were emulsified in 50% (v/v) Freund's Incomplete Adjuvant (FIA) and were administered in the same manner as the 1° immunisation, at monthly intervals. Blood sampling took place 7 to 14 days after each boost. *The general procedure for immunogen administration is outlined above, however, it was necessary to deviate from this protocol in some cases, due to reduced immunogen concentrations (Immunogens II, IV, VII and VIII) and/or amount available (Immunogen VIII). Any deviations from the protocol described are outlined in Table 5 below and highlighted in bold.
(§2) The wells of an enhanced binding 96 well polystyrene microtiter plate were coated with IgG fraction of antiserum raised to Immunogen I or II, diluted in 10 mM Tris, pH8.5 (125 μl/well). The appropriate antibody coating dilution was determined using standard ELISA checkerboard techniques. The plate was incubated overnight at 4° C., washed 4 times over 10 minutes with Tris buffered saline containing Tween 20 (TBST) and tapped dry. Standard solutions (JWH-018 for Immunogens I and II) were applied at 0, 0.625, 1.25, 2.5, 5, 10, 20 and 40 ng/ml and 50 μl of each was added to the appropriate wells. 75 μl of conjugate (appropriate hapten-HRP) diluted in Tris buffer (pH 7.2) containing EDTA, D-mannitol, sucrose, thimerosal and BSA, was added to each of the wells. The appropriate dilution of conjugate was also determined using standard ELISA checkerboard techniques. The plate was incubated at 25° C. for 1 hour. Excess unbound conjugate was removed by washing 6 times over a 10 minute period with TBST. 125 μl of tetramethylbenzidine (TMB) substrate solution was added to each well of the plate that was then incubated for 20 minutes in the dark at room temperature. The reaction was terminated by addition of 125 μl 0.2M H2SO4 to each well. The absorbance was then measured at 450 nm using a microtiter plate reader. The data are inputted to a computer program called ‘KC Junior’. It is a 4 parameter fit curve and allow the calculation of concentrations between the standard runs. This program is used to calculate the IC50s by dividing the 0 ng/ml OD value by 2 and obtaining the concentration value from the curve for this OD.
(§3) In a similar manner to that described above, the wells of a 96-well microtiter plate were coated with the IgG fraction of the antiserum raised to Immunogens IV, VII or VIII. Standard solutions (JWH-018 for Immunogens IV and VIII, JWH-015 for Immunogen VII) were prepared in TBST at 0, 1.25, 2.5, 5, 10, 20, 40 and 80 ng/ml and conjugate was employed as detection reagent.
(§4) The data set out in Tables 7-10 are generated using antibodies raised against the indicated Immunogens in a competitive binding assay with the indicated tracers, using the indicated standards
(§5) In order to determine the specificity of the competitive ELISAs, standard solutions of a range of structurally similar synthetic cannabinoids and their metabolites were prepared in TBST.
(§6) Using the calibration curves generated and employing a single level of cross reactants, these were used to determine the cross-reactivity of each immunoassay with these substances. These are the standards used for the IC50 and cross-reactivity data generation: […]

[2] = test system: IgG fraction of antiserum raised to Immunogen VIII; settings: Antibody to Immunogen VIII, cross-reactants at 100 ng/ml, 1000 ng/ml, standard JWH-018
Experimental: as §1, §2, §3, §4, §5, §6

[3] = test system: IgG fraction of antiserum raised to Immunogen VII; settings: Antibody to Immunogen VII, cross-reactants at 100 ng/ml, 1000 ng/ml, standard JWH-015
Experimental: as §1, §2, §3, §4, §5, §6

[4] = test system: IgG fraction of antiserum raised to Immunogen I; settings: Antibody to Immunogen I, cross-reactants at 100 ng/ml, 1000 ng/ml, standard JWH-018
Experimental: as §1, §2
In a similar manner to that described above, the wells of a 96-well microtiter plate were coated with the IgG fraction of the antiserum raised to Immunogens I or II. Standard solutions (JWH-018 for Immunogen I and II) were applied at 0, 0.625, 1.25, 2.5, 5, 10, 20 and 40 ng/ml and conjugate was employed as detection reagent.
as §4, §5, §6

Row | Molecule | % B/B0 [1] [%] | % B/B0 [2] [%] | % B/B0 [3] [%] | % B/B0 [4] [%] | % B/B0 ([1]; listed as JWH-164) [%] | % B/B0 ([2]; listed as JWH-164) [%] | % B/B0 ([3]; listed as JWH-164) [%] | % B/B0 ([4]; listed as JWH-164) [%]
1 | O=C(c1ccc(I)cc1)c1cn(CCCCCF)c2ccccc12 [AM-694 4-iodo isomer] | 27.66 | 13.42 | 98.71 | 73.79 | – | – | – | –
2 | CCCC(C)(C)c1ccc2c(c1)OC(C)(C)[C@@H]1CC=C(C)C[C@@H]21 [JWH-133] | 98.18 | 100.00 | 101.84 | 100.56 | – | – | – | –
3 | NCCc1c[nH]c2ccc(O)cc12 [Serotonin HCl] | 95.40 | 100.36 | 99.83 | 99.65 | – | – | – | –
4 | CCCCCn1c(C)c(C(=O)c2ccc(OC)c3ccccc23)c2ccccc21 [JWH-098] | 44.03 | 59.80 | 82.85 | 77.58 | – | – | – | –
5 | (−)-CP 55,940 | 93.02 | 97.58 | 101.15 | 98.27 | – | – | – | –
6 | CS(=O)(=O)O.Cc1c(C(=O)c2cccc3ccccc23)c2cccc3c2n1[C@@H](CN1CCOCC1)CO3 [Win 55,212-3 mesylate] | 94.57 | 101.30 | 32.31 | 34.00 | – | – | – | –
7 | CCCCCn1cc(C(=O)c2cccc(OC)c2)c2ccccc21 [RCS-4 3-methoxy isomer] | 25.65 | 10.95 | 94.72 | 31.19 | – | – | – | –
8 | CCCCCC(C)n1c(C)c(C(=O)c2cccc3ccccc23)c2ccccc21 (stereo not shown) [JWH-011] | 99.19 | 97.49 | 57.43 | 62.13 | – | – | – | –
9 | CCCCCn1ccc(C(=O)c2cccc3ccccc23)c1 [JWH-030] | 93.17 | 94.25 | 89.66 | 61.17 | – | – | – | –
10 | CCCCCn1cc(C(=O)Cc2cccc(C)c2)c2ccccc21 [JWH 251 3-methylphenyl isomer] | 51.15 | 8.97 | 99.32 | 85.90 | – | – | – | –
11 | CCCCCn1cc(C(=O)Cc2cccc(OC)c2)c2ccccc21 [JWH-302] | 45.67 | 7.97 | 104.92 | 84.66 | – | – | – | –
12 | COc1ccc(C(=O)c2c(C)n(CCN3CCOCC3)c3ccccc23)cc1 [WIN-48,098, Pravadoline] | 91.64 | 97.90 | 92.41 | 90.05 | – | – | – | –
13 | CCCCCn1cc(C(=O)c2ccc(CC)c3ccccc23)c2ccccc21 [JWH-210] | 5.53 | 16.87 | 96.62 | 91.18 | – | – | – | –
14 | O=C(c1ccc2ccccc2c1)c1cn(CCN2CCOCC2)c2ccccc12 [JWH-200 2′-naphthyl isomer] | 92.29 | 96.12 | 94.65 | 28.57 | – | – | – | –
15 | CCCCCn1cc(C(=O)C23CC4CC(CC(C4)C2)C3)c2ccccc21 [JWH 018 adamantyl analog] | 99.02 | 10.97 | 94.48 | 95.94 | – | – | – | –
16 | CCCCn1cc(C(=O)c2ccc(OC)cc2)c2ccccc21 [RCS-4-C4 homologue] | 27.17 | 9.54 | 100.20 | 76.27 | – | – | – | –
17 | CCc1ccc(C(=O)c2cn(CCCCCC(=O)O)c3ccccc23)c2ccccc12 [JWH-210 N-(5-carboxypentyl) metabolite] | 85.29 | 96.27 | 96.07 | 76.77 | – | – | – | –
18 | COc1ccccc1CC(=O)c1cn(CCCCCO)c2ccccc12 [JWH 250 N-(5-hydroxypentyl) metabolite] | 76.22 | 42.79 | 96.13 | 75.47 | – | – | – | –
19 | COc1ccc(C(=O)c2cn(CCCCCO)c3ccccc23)c2ccccc12 [JWH-081 N-(5-hydroxypentyl) metabolite] | 26.31 | 47.16 | 89.31 | 61.86 | – | – | – | –
20 | CCCCCn1cc(C(=O)c2ccc(OC)cc2)c2ccccc21 [RCS-4] | 19.21 | 5.93 | 93.51 | 80.46 | – | – | – | –
21 | CCCCCn1cc(C(=O)Cc2ccccc2C)c2ccccc21 [JWH-251] | 42.02 | 9.12 | 96.74 | 68.01 | – | – | – | –
22 | CCCCCn1cc(C(=O)c2c(CC)ccc3ccccc23)c2ccccc21 [JWH-210 2-ethylnaphthyl isomer] | 53.97 | 73.51 | 96.13 | 81.37 | – | – | – | –
23 | CCCCCCC(C)(C)c1cc(OC)c([C@@H]2C=C(CO)[C@@H]3C[C@H]2C3(C)C)c(OC)c1 [HU-308] | 94.03 | 89.77 | 95.95 | 101.35 | – | – | – | –
24 | COc1ccc(C(=O)c2cn(CCCCCC(=O)O)c3ccccc23)cc1 [RCS-4 N-(5-carboxypentyl) metabolite] | 91.44 | 91.97 | 94.00 | 77.12 | – | – | – | –
25 | CCCCCn1cc(C(=O)c2ccc3ccccc3c2)c2ccccc21 [JWH 018 2′-naphthyl isomer] | 28.13 | 14.94 | 94.98 | 75.90 | – | – | – | –
26 | CCCCCn1cc(C(=O)c2cccc3ccc(OC)cc23)c2ccccc21 [JWH-081 7-methoxynaphthyl isomer] | 39.20 | 59.51 | 97.60 | 88.26 | 36.14 | 57.93 | 96.13 | 91.86
27 | CCCCCCC(C)(C)c1cc(O)c2c(c1)OC(C)(C)[C@@H]1CC=C(CO)C[C@@H]21 [HU-210] | 92.53 | 93.42 | 100.39 | 102.57 | – | – | – | –
28 | CCCCCCC(C)(C)C1=CC(=O)C(C2CCCC(O)C2)=CC1=O (stereo not shown) [CP-47,497-para-quinone analogue] | 97.33 | 88.11 | 93.29 | 100.26 | – | – | – | –
29 | CN1CCCCC1Cn1cc(C(=O)c2cc([N+](=O)[O-])ccc2I)c2ccccc21 (stereo not shown) [AM-1241] | 91.38 | 102.46 | 94.96 | 85.61 | – | – | – | –
30 | COc1cccc(CC(=O)c2cn(CCC3CCCCC3)c3ccccc23)c1 [RCS-8 3-methoxy isomer] | 89.43 | 83.62 | 93.73 | 93.24 | – | – | – | –
